Measured values published in ChEMBL document CHEMBL5126589, “Drug design and DNA structural research inspired by the Neidle laboratory: DNA minor groove binding and transcription factor inhibition by thiophene diamidines” (Bioorg Med Chem, 2022).

Legend:
[1] = Inhibition of PU.1 binding to biotin labeled lambdaB DNA (unknown origin) by sensor chip immobilization based surface plasmon resonance analysis
[2] = Binding affinity to biotin labeled hairpin DNA 5'-GAATTC-3' (unknown origin) assessed as dissociation rate constant by sensor chip immobilization based surface plasmon resonance analysis
[3] = Binding affinity to biotin labeled hairpin DNA 5'-GAATTC-3' (unknown origin) assessed as equilibrium dissociation constant by sensor chip immobilization based surface plasmon resonance analysis
[4] = Binding affinity to biotin labeled hairpin DNA 5'-GAATTC-3' (unknown origin) assessed as association constant by sensor chip immobilization based surface plasmon resonance analysis
[5] = Binding affinity to biotin labeled hairpin DNA 5'-GAATTC-3' (unknown origin) assessed as equilibrium binding constant by sensor chip immobilization based surface plasmon resonance analysis

| Compound | IC50 [1] | Kd [2] | Kd [3] | Ka [4] | KA [5] |
| --- | --- | --- | --- | --- | --- |
| N=C(N)c1ccc(-c2ccc(-c3cc4ccc(C(=N)N)cc4[nH]3)s2)cc1 | 23 nM | 2.9 10^-3/s | 6.5 nM | 4.5 10^5/M/s |  |
| N=C(N)c1ccc(-c2ccc(-c3ccc(C(=N)N)cc3)o2)cc1 [FURAMIDINE] |  |  | 140 nM |  |  |
| N=C(N)c1ccc(-c2ccc(-c3nc4ccc(C(=N)N)cc4[nH]3)s2)cc1 | 9 nM | 8.9 10^-3/s | 1.5 nM | 5.8 10^6/M/s | 6.6 10^8/M |
